Measured values reported in patent US20160008490A1, “METAL CHELATE COMPOUNDS FOR BINDING TO THE PLATELET SPECIFIC GLYCOPROTEIN IIB/IIIA” (BAYER PHARMA AKTIENGESELLSCHAFT, priority 2013, published 2016).

What was measured:
[1] = tested on: human activated platelets; experiment: Binding of investigated compounds to human activated platelets (ICP-MS of Gd in pellet and supernatant); type: cell-based; details: incubation concentration 1 μM molecule
Protocol: For each experiment fresh blood was taken from a volunteer using 10 mL citrate-tubes (Sarstedt S-Monovette 02.1067.001, 10 mL, Citrate 3.13%). The 10 mL citrate-tubes were carefully inverted 10 times to mix blood and anticoagulant. The tubes were stored in an incubator at a temperature of 37° C. until centrifugation (Heraeus miniTherm CTT with integrated rotation- and turning device, turning speed: 19 rotations per minute, Heraeus Instruments GmbH, Hanau/Germany).
For plasma preparation tube centrifugation was carried out for 15 minutes at 1811 g at room temperature (Eppendorf, Centrifuge 5810R). Blood was centrifuged 15 minutes at 201 g at room temperature to produce platelet-rich plasma. The tubes were stored for 30 min at room temperature to get a better separation. The separated platelet-rich plasma was finally centrifuged for further 3 min at 453 g to remove the remaining erythrocytes. The platelet-rich plasma was activated using a final concentration of 5 μM Adenosindiphosphate (ADP, Sigma). The activated platelet-rich plasma was incubated 20 minutes with different concentrations of gadolinium-labeled compound and subsequently was centrifuged 3 minutes at 1360 g. 20 μL of incubation solution was taken to determine the concentration (n=3). […] The gadolinium concentration of supernatant and pellet was determined using an inductively coupled plasma mass spectrometry (ICP-MS Agilent 7500a).
The results for incubation concentration of 1 μM gadolinium-labeled compound are summarized in table 3 (in comparison to Gadovist® standard dose: 100 μmol Gd/kg body weight).

[2] = molecular target: T1, human GP IIb/IIIa receptor (Homo sapiens, UniProt P05106+P08514); experiment: GPIIb/IIIa affinity assay (displacement of tritiated reference compound from immobilized receptor); type: binding; details: purified human GPIIb/IIIa, 60 nM 3H-labeled reference compound, 1 hour at room temperature
T1 construct: human GPIIb/IIIa purified from human platelets was immobilized on a 96-well solid plate; purchased Enzyme Research Laboratories Inc. (South Bend, Ind.); host or cells: human platelets (natural source, detergent-solubilised)
Protocol: Affinity assay: In the first step human GPIIb/IIIa purified from human platelets was immobilized on a 96-well solid plate. After 48 hours the plates were washed and the unspecific binding sites were blocked with Roti®-Block. 2. In the next step, the plates were simultaneously incubated with a tritium labeled known GPIIb/IIIa binder (^3H) mixed with increasing concentrations of the novel compounds (inhibitor). The higher the affinity of the inhibitor, the lower the bound fraction of the tritiated known GPIIb/IIIa binder (^3H) was. The fraction of tritiated compound (^3H), which is not displaced by inhibitor, was measured in a microplate scintillation counter.
Purified human glycoprotein IIb/IIIa (20 mM Tris-HCl, 0.1 M NaCl, 0.1% Triton X-100, 1 mM CaCl2, 0.05% NaN3, 50% Glycerol, pH 7.4) was purchased from Enzyme Research Laboratories Inc. (South Bend, Ind.). The GPIIb/IIIa receptor was diluted in phosphate-buffered saline (Dulbecco's Phosphate Buffered Saline (D-PBS (+)) with calcium and magnesium, GIBCO®, Invitrogen) with 0.01% bovine serum albumin (albumin from bovine serum—lyophilized powder, 96%, Sigma).
The GPIIb/IIIa receptor was immobilized 48 hours at least (100 μL per well, 48 to maximum 96 hours) on a 96-well solid plate (Immuno Plate MaxiSorp™, Nunc, Roskilde, Denmark) at 277 K to 280 K and at a concentration of 0.1 μg per well to 1 μg per well. As negative control one row of the plate (n=8) was incubated just with 2% bovine serum albumin (200 μL per well, albumin from bovine serum—lyophilized powder, ≧96%, Sigma, diluted in D-PBS (+)).
After washing three times with the wash buffer (230 μL per well, Dulbecco's Phosphate Buffered Saline (D-PBS (−)) contains no calcium or magnesium, GIBCO®, Invitrogen) residual exposed plastic and unspecific binding sites were blocked by incubating the plate with a special blocking solution (200 μL per well, Roti®-Block, Car Roth GmbH Co KG, Karlsruhe) containing 2% bovine serum albumin (Albumin from bovine serum—lyophilized powder, ≧96%, Sigma) 1 hour at room temperature.
After washing three times with the wash buffer 50 μL of tritiated reference compound (60 nM, ^3H-labeled compound) and 50 μL of novel compound (inhibitor) were simultaneously added to each well and incubated for 1 hour at room temperature. Several concentrations of each novel inhibitor (0.1, 1, 2, 5, 10, 20 50, 100, 200, 500, 1000, 2000, 5000, 10000 and 20000 nM) were investigated. At each concentration of inhibitor a fourfold determination was performed.
The maximum value of tritiated reference compound was determined without addition of inhibitor (n=8). To exclude unspecific binding of ^3H— reference compound wells without glycoprotein receptors were used as negative controls (n=12, identically treated just without GPIIb/IIIa receptors).
After one hour the plate was washed three times with phosphate-buffered saline (200 μL per well, Dulbecco's Phosphate Buffered Saline (D-PBS (+)), GIBCO®, Invitrogen). Following 140 μL of liquid scintillation cocktail (MicroScint™ 40 aqueous, Perkin Elmer) was added to each well. After 15 min at room temperature the plates were measured at the microplate scintillation counter (TopCount NXT v2.13, Perkin Elmer, Packard Instrument Company).
In the first step human glycoprotein IIb/IIIa, which is purified from human platelets, was immobilized on a 96-well solid plate. After 48 hours at least the plates were washed and the unspecific binding sites were blocked with Roti®-Block. In the next step, the plates were simultaneously incubated with a tritium labeled reference compound and the novel small molecule compound (inhibitor). The higher the affinity of the inhibitor, the smaller is the bound fraction of reference compound. The fraction of tritiated reference compound, which is not displaced by inhibitor, was measured at a microplate scintillation counter. The higher the affinity of the inhibitor, the smaller is the bound fraction of tritium-labeled reference compound. […]

[3] = Relaxivity measurements at 1.41 T in water and plasma; type: physicochemical; details: relaxivity normalized to Gd, 37° C.
Protocol: Relaxivity measurements at 1.41 T were performed using a MiniSpec mq60 spectrometer (Bruker Analytik, Karlsruhe) operating at a resonance frequency of 60 MHz and a temperature of 37° C. The T1 relaxation times were determined using the standard inversion recovery method. The T2 measurements were done by using the Carr-Purcell-Meiboom-Gill (CPMG) pulse sequence. All measurements were done at concentrations between 0.05 mM and 1 mM of Gd in water and plasma.
The relaxivities ri (where i=1, 2) were calculated on the basis of the measured relaxation rates Ri in water and plasma:
where Ri(0) represent the relaxation rate of the respective solvent and CGd the concentration of the compound normalized to the Gadolium.

T1 sequence (P08514 32-887 limits assumed): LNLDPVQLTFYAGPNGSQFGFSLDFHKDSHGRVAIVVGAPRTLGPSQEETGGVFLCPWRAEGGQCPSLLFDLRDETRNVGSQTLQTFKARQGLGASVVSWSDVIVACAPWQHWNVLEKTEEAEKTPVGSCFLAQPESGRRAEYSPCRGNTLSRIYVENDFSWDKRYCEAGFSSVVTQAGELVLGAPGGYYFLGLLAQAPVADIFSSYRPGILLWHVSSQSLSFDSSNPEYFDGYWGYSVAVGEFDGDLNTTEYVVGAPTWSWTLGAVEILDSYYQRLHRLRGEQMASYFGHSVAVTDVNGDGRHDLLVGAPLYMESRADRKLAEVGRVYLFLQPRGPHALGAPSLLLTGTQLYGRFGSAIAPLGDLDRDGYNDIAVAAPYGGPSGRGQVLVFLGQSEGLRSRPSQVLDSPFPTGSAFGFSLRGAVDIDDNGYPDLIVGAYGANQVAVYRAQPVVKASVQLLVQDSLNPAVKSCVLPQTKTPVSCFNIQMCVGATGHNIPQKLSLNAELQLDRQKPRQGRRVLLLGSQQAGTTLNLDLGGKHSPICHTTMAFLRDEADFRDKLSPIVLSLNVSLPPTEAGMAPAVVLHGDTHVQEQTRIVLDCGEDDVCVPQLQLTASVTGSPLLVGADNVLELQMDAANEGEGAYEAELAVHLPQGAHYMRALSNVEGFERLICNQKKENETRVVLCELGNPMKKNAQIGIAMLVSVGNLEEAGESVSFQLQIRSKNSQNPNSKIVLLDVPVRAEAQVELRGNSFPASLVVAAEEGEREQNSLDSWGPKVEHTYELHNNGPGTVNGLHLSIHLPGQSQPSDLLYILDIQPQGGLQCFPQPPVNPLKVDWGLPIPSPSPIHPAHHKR
T1 sequence (P08514 891-1039 partner limits assumed): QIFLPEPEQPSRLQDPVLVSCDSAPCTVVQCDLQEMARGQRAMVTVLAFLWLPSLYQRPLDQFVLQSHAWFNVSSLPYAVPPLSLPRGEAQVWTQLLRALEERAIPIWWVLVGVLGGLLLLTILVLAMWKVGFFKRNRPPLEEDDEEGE
T1 sequence (P05106 27-788): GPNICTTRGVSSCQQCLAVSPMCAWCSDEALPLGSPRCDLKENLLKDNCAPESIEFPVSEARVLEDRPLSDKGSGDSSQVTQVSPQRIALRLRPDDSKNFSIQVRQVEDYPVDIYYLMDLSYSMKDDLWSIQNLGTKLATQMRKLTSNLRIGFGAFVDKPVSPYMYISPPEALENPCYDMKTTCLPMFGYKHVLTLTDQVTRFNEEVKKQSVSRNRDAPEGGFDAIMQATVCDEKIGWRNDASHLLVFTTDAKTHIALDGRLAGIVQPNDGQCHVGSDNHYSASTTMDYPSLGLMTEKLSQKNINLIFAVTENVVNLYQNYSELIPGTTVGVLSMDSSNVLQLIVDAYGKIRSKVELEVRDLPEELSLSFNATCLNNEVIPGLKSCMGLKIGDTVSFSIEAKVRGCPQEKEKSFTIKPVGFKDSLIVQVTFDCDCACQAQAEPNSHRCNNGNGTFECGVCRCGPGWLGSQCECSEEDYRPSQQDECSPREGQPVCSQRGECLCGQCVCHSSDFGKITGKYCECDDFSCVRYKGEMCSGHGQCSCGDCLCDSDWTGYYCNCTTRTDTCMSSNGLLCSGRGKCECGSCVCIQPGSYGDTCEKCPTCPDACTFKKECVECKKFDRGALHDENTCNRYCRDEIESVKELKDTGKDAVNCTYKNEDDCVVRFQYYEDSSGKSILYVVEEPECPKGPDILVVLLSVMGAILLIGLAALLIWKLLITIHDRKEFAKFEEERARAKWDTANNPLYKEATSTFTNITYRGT

**Q.** Which results are given for `CC(C(=O)NCC(=O)NC[C@H](NC(=O)CNC(=O)C(C)N1CCN(CC(=O)O)CCN(CC(=O)O)CCN(CC(=O)O)CC1)C(=O)NC[C@H](NC(=O)[C@H](CNC(=O)CNC(=O)C(C)N1CCN(CC(=O)O)CCN(CC(=O)O)CCN(CC(=O)O)CC1)NC(=O)CNC(=O)C(C)N1CCN(CC(=O)O)CCN(CC(=O)O)CCN(CC(=O)O)CC1)C(=O)NCCCCc1cccc(C#Cc2cncc([C@H](CC(=O)O)NC(=O)[C@@H]3CCCN(C(=O)CCC4CCNCC4)C3)c2)c1)N1CCN(CC(=O)O)CCN(CC(=O)O)CCN(CC(=O)O)CC1` (some centres unmarked) [Example 8]?
**A.** Concentration within platelet pellet ([1]; ADP-activated platelet-rich plasma, 20 minutes, pellet washed): 26.7 ± 1.5 μM Gd; pellet/supernatant ([1]; ratio of Gd concentration): 254 ± 26 (n = 3); IC50 [2]: 21 nM; r1 plasma ([3]; plasma): 14.5 L/mmol/s; r1 water ([3]; water): 12.6 L/mmol/s
